Non-standard residues stand in square brackets, D forms with d. Residues, ends and D or L forms follow the SMILES beside them. Arg(Me) = CNC(=N)NCCC[C@H](N)C(=O)O; azaGly = NNC(=O)O

T1 sequence (Q969F8 whole entry L364H): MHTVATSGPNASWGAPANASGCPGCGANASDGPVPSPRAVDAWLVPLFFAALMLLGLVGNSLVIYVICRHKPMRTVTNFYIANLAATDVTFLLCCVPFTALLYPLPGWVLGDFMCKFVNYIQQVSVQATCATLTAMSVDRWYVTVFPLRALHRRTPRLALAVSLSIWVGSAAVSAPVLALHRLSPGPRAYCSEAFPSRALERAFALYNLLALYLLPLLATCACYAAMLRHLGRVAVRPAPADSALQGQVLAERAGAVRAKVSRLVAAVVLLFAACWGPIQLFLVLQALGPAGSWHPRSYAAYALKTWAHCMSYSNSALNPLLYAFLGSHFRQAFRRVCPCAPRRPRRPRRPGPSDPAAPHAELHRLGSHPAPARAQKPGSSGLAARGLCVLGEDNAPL

The experiment concerns the target T1, hOT7T175 (Homo sapiens, UniProt Q969F8, L364H).
T1 construct: expressed in transfected cells
The experiment can be described thus: Intracellular Ca ion level-increasing activity using FLIPR (180 seconds; specific activity to Metastin (1-54)). As to conditions: hOT7T175/CHO, relative to Metastin (1-54) = 1. The format is cell-based.
For the compound `CNC(=N)NCCC[C@H](NC(=O)[C@@H](NC(=O)CNC(=O)[C@H](Cc1ccccc1)NC(=O)[C@H](CO)NC(=O)[C@H](CC(N)=O)NC(=O)[C@H](Cc1c[nH]c2ccccc12)NC(=O)[C@H](CC(N)=O)NC(=O)[C@H](N)Cc1ccc(O)cc1)C(C)C)C(=O)N[C@@H](Cc1ccccc1)C(N)=O` [Compound No. 213] (H-[dY]NWNSFGV[Arg(Me)]F-NH2), the “Specific Act. (intracellular Ca ion level-increasing activity, specific activity to Metastin (1-54))” value is reported as 2.
In the case of `CNC(=N)NCCC[C@H](NC(=O)[C@H](CC(C)C)NC(=O)CNC(=O)[C@H](Cc1ccccc1)NC(=O)[C@H](CO)NC(=O)[C@H](CC(N)=O)NC(=O)[C@H](Cc1c[nH]c2ccccc12)NC(=O)[C@H](CCC(N)=O)NC(=O)[C@H](N)Cc1ccc(O)cc1)C(=O)N[C@@H](Cc1ccccc1)C(N)=O` [Compound No. 214] (H-[dY]QWNSFGL[Arg(Me)]F-NH2), the “Specific Act. (intracellular Ca ion level-increasing activity, specific activity to Metastin (1-54))” value was 10.
As for `CNC(=N)NCCC[C@H](NC(=O)[C@H](CC(C)C)NC(=O)CNC(=O)[C@H](Cc1ccccc1)NC(=O)[C@H](CO)NC(=O)[C@H](CC(N)=O)NC(=O)[C@H](Cc1c[nH]c2ccccc12)NC(=O)[C@@H](NC(=O)[C@H](N)Cc1ccc(O)cc1)[C@@H](C)O)C(=O)N[C@@H](Cc1ccccc1)C(N)=O` [Compound No. 215] (H-[dY]TWNSFGL[Arg(Me)]F-NH2), the “Specific Act. (intracellular Ca ion level-increasing activity, specific activity to Metastin (1-54))” value stood at 10.
Regarding `CNC(=N)NCCC[C@H](NC(=O)[C@H](CC(C)C)NC(=O)CNC(=O)[C@H](Cc1ccccc1)NC(=O)[C@H](CO)NC(=O)[C@H](CC(N)=O)NC(=O)[C@H](Cc1c[nH]c2ccccc12)NC(=O)[C@H](N)CC(N)=O)C(=O)N[C@@H](Cc1ccccc1)C(N)=O` [Compound No. 216] (H-[dN]WNSFGL[Arg(Me)]F-NH2), the “Specific Act. (intracellular Ca ion level-increasing activity, specific activity to Metastin (1-54))” value is 1.
As to `CCNC(=N)NCCC[C@H](NC(=O)[C@H](CC(C)C)NC(=O)CNC(=O)[C@H](Cc1ccccc1)NC(=O)[C@H](CO)NC(=O)[C@H](CC(N)=O)NC(=O)[C@H](Cc1c[nH]c2ccccc12)NC(=O)[C@H](CC(N)=O)NC(=O)[C@@H](N)Cc1ccc(O)cc1)C(=O)N[C@@H](Cc1ccccc1)C(N)=O` [Compound No. 220], the “Specific Act. (intracellular Ca ion level-increasing activity, specific activity to Metastin (1-54))” value is recorded as 5.
Consider `CNC(=N)NCCC[C@H](NC(=O)[C@H](CC(C)C)NC(=O)CNC(=O)[C@H](Cc1ccccc1)NC(=O)[C@H](CO)NC(=O)[C@H](CC(N)=O)NC(=O)[C@@H](Cc1c[nH]c2ccccc12)NC(=O)[C@H](N)Cc1ccc(O)cc1)C(=O)N[C@@H](Cc1ccccc1)C(N)=O` [Compound No. 224, D-Tyr-D-Trp-Asn-Ser-Phe-Gly-Leu-Arg(Me)-Phe-NH2] (H-[dY][dW]NSFGL[Arg(Me)]F-NH2), for which the “Specific Act. (intracellular Ca ion level-increasing activity, specific activity to Metastin (1-54))” value turned out to be 2.
Regarding `CNC(=N)NCCC[C@H](NC(=O)[C@H](CC(C)C)NC(=O)CNC(=O)[C@H](Cc1ccccc1)NC(=O)[C@H](CO)NC(=O)[C@H](CC(N)=O)NC(=O)[C@@H](Cc1c[nH]c2ccccc12)NC(=O)[C@H](N)CC(N)=O)C(=O)N[C@@H](Cc1ccccc1)C(N)=O` [Compound No. 225, D-Asn-D-Trp-Asn-Ser-Phe-Gly-Leu-Arg(Me)-Phe-NH2] (H-[dN][dW]NSFGL[Arg(Me)]F-NH2), the “Specific Act. (intracellular Ca ion level-increasing activity, specific activity to Metastin (1-54))” value turned out to be 1.
`CNC(=N)NCCC[C@H](NC(=O)[C@H](CC(C)C)NC(=O)CNC(=O)[C@H](Cc1ccccc1)NC(=O)[C@H](CO)NC(=O)[C@H](CC(N)=O)NC(=O)[C@H](CO)NC(=O)[C@H](N)Cc1ccc(O)cc1)C(=O)N[C@@H](Cc1ccccc1)C(N)=O` [Compound No. 226] (H-[dY]SNSFGL[Arg(Me)]F-NH2): the “Specific Act. (intracellular Ca ion level-increasing activity, specific activity to Metastin (1-54))” value is 1.
The value for `CNC(=N)NCCC[C@H](NC(=O)[C@H](CC(C)C)NC(=O)CNC(=O)[C@H](Cc1ccccc1)NC(=O)[C@H](CO)NC(=O)[C@H](CC(N)=O)NC(=O)[C@@H](NC(=O)[C@H](N)Cc1ccc(O)cc1)[C@@H](C)O)C(=O)N[C@@H](Cc1ccccc1)C(N)=O` [Compound No. 227] (H-[dY]TNSFGL[Arg(Me)]F-NH2) was 1; that for `CC[C@H](C)[C@H](NC(=O)[C@H](N)Cc1ccc(O)cc1)C(=O)N[C@@H](CC(N)=O)C(=O)N[C@@H](CO)C(=O)N[C@@H](Cc1ccccc1)C(=O)NCC(=O)N[C@@H](CC(C)C)C(=O)N[C@@H](CCCNC(=N)NC)C(=O)N[C@@H](Cc1ccccc1)C(N)=O` [Compound No. 228] (H-[dY]INSFGL[Arg(Me)]F-NH2) was 5.
The result for `CNC(=N)NCCC[C@H](NC(=O)[C@H](CC(C)C)NC(=O)CNC(=O)[C@H](Cc1ccccc1)NC(=O)[C@H](CO)NC(=O)[C@H](CC(N)=O)NC(=O)[C@@H](NC(=O)[C@H](CC(N)=O)NC(=O)[C@H](N)Cc1ccc(O)cc1)C(C)C)C(=O)N[C@@H](Cc1ccccc1)C(N)=O` [Compound No. 229] (H-[dY]NVNSFGL[Arg(Me)]F-NH2) reads 1; that for `CNC(=N)NCCC[C@H](NC(=O)[C@H](CC(C)C)NC(=O)CNC(=O)[C@H](Cc1ccccc1)NC(=O)[C@H](CO)NC(=O)[C@H](CC(N)=O)NC(=O)[C@H](Cc1c[nH]c2ccccc12)NC(=O)[C@@H](CC(N)=O)NC(=O)[C@H](N)Cc1ccc(O)cc1)C(=O)N[C@@H](Cc1ccccc1)C(N)=O` [Compound No. 230], 10.
As for `CNC(=N)NCCC[C@H](NC(=O)[C@H](CC(C)C)NC(=O)CNC(=O)[C@H](Cc1ccccc1)NC(=O)[C@H](CO)NC(=O)[C@H](CC(N)=O)NC(=O)[C@@H](Cc1c[nH]c2ccccc12)NC(=O)[C@@H](CC(N)=O)NC(=O)[C@H](N)Cc1ccc(O)cc1)C(=O)N[C@@H](Cc1ccccc1)C(N)=O` [Compound No. 231, D-Tyr-D-Asn-D-Trp-Asn-Ser-Phe-Gly-Leu-Arg(Me)-Phe-NH2], the “Specific Act. (intracellular Ca ion level-increasing activity, specific activity to Metastin (1-54))” value was found to be 1.
Consider `CC[C@H](C)[C@H](NC(=O)[C@H](CC(N)=O)NC(=O)[C@H](N)Cc1ccc(O)cc1)C(=O)N[C@@H](CC(N)=O)C(=O)N[C@@H](CO)C(=O)N[C@@H](Cc1ccccc1)C(=O)NNC(=O)N[C@@H](CC(C)C)C(=O)N[C@@H](CCCNC(=N)NC)C(=O)N[C@@H](Cc1ccccc1)C(N)=O` [Compound No. 233, D-Tyr-Asn-Ile-Asn-Ser-Phe-AzaGly-Leu-Arg(Me)-Phe-NH2] (H-[dY]NINSF[azaGly]L[Arg(Me)]F-NH2), for which the “Specific Act. (intracellular Ca ion level-increasing activity, specific activity to Metastin (1-54))” value worked out at 1.
Turning to `CNC(=N)NCCC[C@H](NC(=O)[C@H](CC(C)C)NC(=O)NNC(=O)[C@H](Cc1ccccc1)NC(=O)[C@H](CO)NC(=O)[C@H](CC(N)=O)NC(=O)[C@@H](NC(=O)[C@H](CC(N)=O)NC(=O)[C@H](N)Cc1ccc(O)cc1)C(C)C)C(=O)N[C@@H](Cc1ccccc1)C(N)=O` [Compound No. 234, D-Tyr-Asn-Val-Asn-Ser-Phe-AzaGly-Leu-Arg(Me)-Phe-NH2] (H-[dY]NVNSF[azaGly]L[Arg(Me)]F-NH2), the “Specific Act. (intracellular Ca ion level-increasing activity, specific activity to Metastin (1-54))” value is given as 1.

These data come from patent US8778871B2 (Takeda Pharmaceutical Company Limited, priority 2004, dated 2014).
